Source: PMC11500415, “Chemical inhibition of stomatal differentiation by perturbation of the master-regulatory bHLH heterodimer via an ACT-Like domain” (Nature Communications, 2024)
Where “and” joins values, the source holds several entries; their conditions need not be identical. Identical values can stand only once. Like-named read-outs stand apart in the source and are kept apart here.

Assays:
MUTE_ACTL [1] = target: T1, MUTE_ACTL (Arabidopsis thaliana, UniProt Q9M8K6); assay: BLI direct binding; design: species or system A. thaliana; conditions: for Kd: read-out: KD
T1 construct: MUTE-ACTL (114-202); made in house; host or cells: E. coli BL21
T1 sequence (Q9M8K6 114-202): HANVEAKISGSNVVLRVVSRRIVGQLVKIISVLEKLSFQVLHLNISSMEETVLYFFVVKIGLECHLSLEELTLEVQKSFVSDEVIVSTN
Description: (§1) A. thaliana SCRM (1-494), ΔNSPCH (98-364), MUTE (1-202), ΔNFAMA (190-414), MUTEΔC (1-114), MUTER133A_R134A, MUTEE162A_E163A, MUTER133A_R134A_E162A_E163A, SCRM-ACTL (405-494), MUTE-ACTL (114-202), SPCH-ACTL (285-364), FAMA-ACTL (306-414), MUTE_ACTLR133A_R134A, MUTE_ACTLE162A_E163A, MUTE_ACTLR133A_R134A_E162A_E163A were cloned into pGEX-4T-1 vector with an N-terminal GST tag and a thrombin cleavage sequence. For protein expression, the constructs were transformed into E. coli strain BL21. For each transformant, a single colony was selected and incubated in 10 ml LB liquid media. The overnight-incubated E. coli suspensions were transferred to 1 L LB medium and incubated at 37 °C for around 2 h until the OD600 reached 0.4–0.6. The isopropyl β-D-1-thiogalactopyranoside ([…] of final concentration) was added to the cultures and the strains were incubated at 22 °C for a further 18 h. GST-fused proteins were purified using glutathione agarose resin. The soluble portion of the cell lysate was loaded onto a GST-Sepharose column. Nonspecifically bound proteins were removed by washing the column with 20 mM Tris pH 8.0, 200 mM NaCl. The bound GST-fused protein was eluted with 10 mm glutathione and 20 mM Tris pH 8.0, 200 mM NaCl. The GST-fused proteins were exchanged with phosphate-buffered saline buffer, and then the solution was treated with 50 μg of thrombin for 10–12 h at 16 ^οC. The GST portion of the protein was cleaved during thrombin digestion, and then the whole solution was reloaded onto the glutathione S-transferase column to obtain pure protein. The purified proteins were further purified by gel filtration on a Superdex-200 (GE) column using fast protein liquid chromatography and phosphate buffer (pH 7.2) as the eluent. The purity of the protein was checked by SDS-PAGE. For detailed lists of oligo DNA and plasmid information, see Supplementary Tables 5, 6, respectively.
The binding affinities of SCRM to MUTE / MUTER133A_R134A / MUTEE162A_E163A / MUTER133A_R134A_E162A_E163A in presence and absence of Stomidazolone (3) and its analogues (AYSJ1059 (5) and AYSJ1061 (6)), and Stomidazolone / AYSJ1059 / AYSJ1061 interactions with GST-tagged SCRM, MUTE, SPCH, FAMA, MUTE ΔACTL, MUTE_ACTL, SCRM_ACTL, SPCH_ACTL and FAMA_ACTL, MUTER133A_134A, MUTEE162A_E163A, MUTER133A_R134A_E162A_E163A were measured using the Octet Red96 system (ForteBio, Pall Life Sciences) following the manufacturer’s protocols. The optical probes coated with anti-GST were first loaded with 500 nM GST tagged proteins before kinetic binding analyses. The experiment was performed in 96-well plates maintained at 30 °C. Each well was loaded with 200 μL reaction volume for the experiment. The binding buffer used in these experiments contained 1× PBS supplemented with 2% DMSO, 0.02% Tween20. […] There was no binding of the analytes to the unloaded probes as shown by the control wells. Binding kinetics to all seven concentrations of the analytes were measured simultaneously using default parameters on the instrument. The data were analyzed using the Octet data analysis software. The association and dissociation curves were fit with the 1:1 homogeneous ligand model. The kobs (observed rate constant) values were used to calculate Kd, with steady-state analysis of the direct binding. See Supplementary Table 3 for details.

MUTE_ACTL [2] = target: T1, MUTE_ACTL; assay: ITC direct binding; design: species or system A. thaliana
Description: as §1
Binding of the small molecule Stomidazolone (3) to SCRM, MUTE, SPCH, FAMA, MUTEΔC, MUTE_ACTL, SCRM_ACTL, SPCH_ACTL and FAMA_ACTL, MUTER133A_R134A, MUTEE162A_E163A, MUTER133A_R134A_E162A_E163A, as well as SCRM binding to MUTE in the presence and absence of Stomidazolone (3) / AYSJ1059 (5) /AYSJ1061 (6) was characterized at 30 °C using a Malvern PEAQ-ITC microcalorimeter. All the protein samples were dialyzed overnight using PBS buffer containing 2% DMSO and 1 mM DTT. Stomidazolone was dissolved in PBS buffer containing 2% DMSO and 1 mM DTT. Titrations were performed by injecting 1 × 0.5-μL and 12 × 3-μL or 1 × 0.75-μL and 18 × 2-μL or 1 × 0.2-μL and 25 × 1.3-μL aliquots of 1 mM Stomidazolone / AYSJ1059 / AYSJ1061 to 5-30 μM of protein in PBS buffer pH 7.4, containing 2% DMSO and 1 mM DTT. All titrations were carried out at least twice. The raw data were corrected using buffer and protein controls and analyzed using the software supplied by the manufacturer. See Supplementary Table 3 for details.

[3] = MUTE_ACTL on Anti-GST sensor, Stomid 12.5 µM, rep-1, rep-2
[4] = MUTE_ACTL on Anti-GST sensor, Stomid 25 µM, rep-1, rep-2
[5] = MUTE_ACTL on Anti-GST sensor, Stomid 50 µM, rep-1, rep-2
[6] = MUTE_ACTL on Anti-GST sensor, Stomid 100 µM, rep-1, rep-2
[7] = MUTE_ACTL on Anti-GST sensor, Stomid 200 µM, rep-1, rep-2

## O=C1C(c2ccccc2)=NC(NS(=O)(=O)c2ccccc2)(c2ccccc2)N1S(=O)(=O)c1ccccc1 (stereo not shown) [Stomidazolone]
MUTE_ACTL [1]; [3]
  Req/Rmax(%): 87.1% and 49%
  Response: 0.391 and 0.425
  kon: 4070 M⁻¹ s⁻¹
  Kd: 11.9 µM
MUTE_ACTL [1]; [4]
  RMax: 0.49 and 0.53
  Req/Rmax(%): 83.8% and 61.4%
  Response: 0.486 and 0.524
  kobs: 0.00294 s⁻¹ and 0.00162 s⁻¹
  kon: 4080 M⁻¹ s⁻¹
  Kd: 12 µM and 11.8 µM
MUTE_ACTL [1]; [5]
  RMax: 0.545 and 0.565
  Req/Rmax(%): 71.3%
  Response: 0.535 and 0.563
  Kd: 11.9 µM and 11.8 µM
MUTE_ACTL [1]; [6]
  RMax: 0.621 and 0.64
  Req/Rmax(%): 98.7%
  Response: 0.611 and 0.632
  Kd: 11.7 µM
MUTE_ACTL [1]; [7]
  RMax: 0.63 and 0.655
  Req/Rmax(%): 100%
  Response: 0.625 and 0.645
  kobs: 0.0329 s⁻¹ and 0.0251 s⁻¹
  Kd: 12 µM
MUTE_ACTL [1]; read-out: kdis(1/s), BLI, sensor at Stomid 3.12 µM
  koff: 0.0481 s⁻¹
MUTE_ACTL [1]; read-out: kdis(1/s), BLI, sensor at Stomid 6.25 µM
  koff: 0.0483 s⁻¹
MUTE_ACTL [1]; read-out: kdis(1/s), BLI, sensor at Stomid 12.5 µM
  koff: 0.0485 s⁻¹
MUTE_ACTL [1]; read-out: kdis(1/s), BLI, sensor at Stomid 25 µM
  koff: 0.0483 s⁻¹
MUTE_ACTL [1]; read-out: kdis(1/s), BLI, sensor at Stomid 50 µM
  koff: 0.0485 s⁻¹
MUTE_ACTL [1]; read-out: kdis(1/s), BLI, sensor at Stomid 100 µM
  koff: 0.0491 s⁻¹
MUTE_ACTL [1]; read-out: kdis(1/s), BLI, sensor at Stomid 200 µM
  koff: 0.0486 s⁻¹
MUTE_ACTL [1]; read-out: kdis(1/s), MUTE_ACTL on Anti-GST sensor, Stomid 6.25 µM, rep-1, rep-2
  koff: 0.0483 s⁻¹
MUTE_ACTL [1]; read-out: kdis(1/s), MUTE_ACTL on Anti-GST sensor, Stomid 12.5 µM, rep-1, rep-2
  koff: 0.0485 s⁻¹
MUTE_ACTL [1]; read-out: kdis(1/s), MUTE_ACTL on Anti-GST sensor, Stomid 25 µM, rep-1, rep-2
  koff: 0.0483 s⁻¹
MUTE_ACTL [1]; read-out: kdis(1/s), MUTE_ACTL on Anti-GST sensor, Stomid 50 µM, rep-1, rep-2
  koff: 0.0485 s⁻¹
MUTE_ACTL [1]; read-out: kon(1/Ms), BLI, sensor at Stomid 3.12 µM
  kon: 4110 M⁻¹ s⁻¹
MUTE_ACTL [1]; read-out: kon(1/Ms), BLI, sensor at Stomid 6.25 µM
  kon: 4050 M⁻¹ s⁻¹
MUTE_ACTL [1]; read-out: kon(1/Ms), BLI, sensor at Stomid 12.5 µM
  kon: 4070 M⁻¹ s⁻¹
MUTE_ACTL [1]; read-out: kon(1/Ms), BLI, sensor at Stomid 25 µM
  kon: 4080 M⁻¹ s⁻¹
MUTE_ACTL [1]; read-out: kon(1/Ms), BLI, sensor at Stomid 50 µM
  kon: 4070 M⁻¹ s⁻¹
MUTE_ACTL [1]; read-out: kon(1/Ms), BLI, sensor at Stomid 100 µM
  kon: 4060 M⁻¹ s⁻¹
MUTE_ACTL [1]; read-out: kon(1/Ms), BLI, sensor at Stomid 200 µM
  kon: 4040 M⁻¹ s⁻¹
MUTE_ACTL [1]; read-out: kon(1/Ms), MUTE_ACTL on Anti-GST sensor, Stomid 6.25 µM, rep-1, rep-2
  kon: 4050 M⁻¹ s⁻¹
MUTE_ACTL [1]; read-out: kon(1/Ms), MUTE_ACTL on Anti-GST sensor, Stomid 12.5 µM, rep-1, rep-2
  kon: 4050 M⁻¹ s⁻¹
MUTE_ACTL [1]; read-out: kon(1/Ms), MUTE_ACTL on Anti-GST sensor, Stomid 25 µM, rep-1, rep-2
  kon: 4070 M⁻¹ s⁻¹
MUTE_ACTL [1]; read-out: kon(1/Ms), MUTE_ACTL on Anti-GST sensor, Stomid 50 µM, rep-1, rep-2
  kon: 4070 M⁻¹ s⁻¹
MUTE_ACTL [1]; read-out: kon(1/Ms), MUTE_ACTL on Anti-GST sensor, Stomid 100 µM, rep-1, rep-2
  kon: 4080 M⁻¹ s⁻¹
MUTE_ACTL [1]; read-out: kon(1/Ms), MUTE_ACTL on Anti-GST sensor, Stomid 200 µM, rep-1, rep-2
  kon: 4070 M⁻¹ s⁻¹
MUTE_ACTL [2]; ITC data
  driving force of binding to the ACTL domain (in words): primarily driven by enthalpic interactions
MUTE_ACTL [2]; ITC, MUTE_ACTL
  -T△S: 14.4 ± 0.3
  △G: -8.1 ± 0.2
  △H: -22.5 ± 0.5
MUTE_ACTL [2]; ITC, MUTE_ACTL, ND = no binding
  Kd: 9.8 ± 1.3 µM
